The record followed here is patent US9265268B2, “Method of handling bananas” (priority 2009, dated 2016).

Holding throughout (assay type): in vivo, Musa
Test [1] deals with bananas. Put plainly: Example 2A: evaluation process A (4 days post-MCP in bag at 14° C., then 7 days at approx. 22° C.). Conditions: for Color Stage (mean) / Sugar Spots (mean %): 4 days in bag at 14° C., then 7 days at approx. 22° C. From the text: The color of banana peels is rated according to a seven stage rating scale: stage 1 (dark green); stage 2 (all light green); stage 3 (half green and half yellow); stage 4 (more yellow than green); stage 5 (green tips and necks); stage 6 (all yellow; maybe light green necks, no green tips); stage 7 (yellow flecked with brown). Consumers generally prefer to eat bananas in stage 5 or stage 6.
(§1) Bananas were harvested at 13 weeks of age. Fruit bunches were separated into hands, then washed, and excess latex was removed in chlorinated water tanks using standard commercial practices. The washed hands of bananas were further broken into clusters and treated with fungicide. Clusters were placed into plastic bags; each bag held approximately 1.4 kg (3 lbs) of bananas. The bananas remained in these bags until they were removed for evaluation (see below).
The plastic bags were either T bags or were modified-atmosphere bags (“MAP” bags). The T bags (also called “PE bags” herein) were typical of bags normally used in commerce for bananas. The bags were then placed into cartons. Each carton held 13 bags. Each carton either held MAP bags only or else held PE bags only. 20 cartons of MAP bags and 20 cartons of PE bags were prepared.
The cartons were placed in a refrigerated truck and transported to a storage facility. The distance from harvest to storage was approximately 100 km. The temperature in the refrigerated truck was 14 to 18° C. To simulate the effect of shipping over long distances, the cartons were placed in conventional cold storage room at 14° C. for two weeks. In storage, the cartons were placed so that air could circulate between and around each carton.
After the storage period, the thermostat of the holding room was raised to 18° C., and no further action was taken until the holding room was at 18° C. for 12 hours. Bananas were ripened using a 5-day schedule, as follows. The temperatures shown are pulp temperatures; if necessary, the thermostat was lowered so that pulp temperature remained at the desired temperature despite any respiration that may be taking place in the bananas.
On day 5 at approximately 4 pm, the cartons were divided in to seven groups: one untreated control (“UTC”) group (6 cartons) and six treatment groups. Each group had equal number of PE cartons and MAP cartons. The six treatment groups were as follows:
UTC cartons were placed in a shed that had good ventilation. The remaining cartons remained in the holding room. Four airtight tents were erected in the holding room. Each tent held all the cartons for one of the treatment groups PE-3-C, PE-10-C, MAP-3, and MAP-10.
(§2) At day 5 at approximately 4 pm, the bananas had reached color stage 2.5 to 3.5. Treatment groups PE-3-C, PE-10-C, MAP-3, and MAP-10 were then exposed to 1-MCP overnight at the concentrations shown above.
Some of the bananas from each group described in Example 2 were evaluated by process “A” as follows: After treatment groups PE-3-C, PE-10-C, MAP-3, and MAP-10 received exposure to 1-MCP, the bananas remained in their bags in the holding room at 14° C. for 4 days; then the bananas were removed from the bags and stored at approximately 22° C. for 7 days; then the bananas were evaluated.

In test [2] the test system is bananas. Put plainly: Example 2B: evaluation process B (3 days post-MCP). Conditions: MAP-3 and MAP-10 groups (MAP bag, 300 or 1000 ppb 1-MCP); 3 days in bag at 14° C.
Description: as §1, §2
This Example was the same as Example 2A, except that after exposure to 1-MCP, the bananas remained in their bags in the holding room at 14° C. for 3 days instead of 4 days.

Test [3] deals with bananas. Put plainly: Example US-1: bananas transferred to MAP after shipment. From the text:
Bananas were harvested and shipped in to Ephrata, Pa., using standard commercial practices, in standard commercial shipping bags. For shipping, bags were placed in cartons; each carton held sufficient bags so that there were approximately 18.1 kg (40 lb.) of bananas in each carton.
After arrival in Ephrata, Pa., bananas were removed from the bags in which they were shipped and placed into new bags, which were either MAP (as described above) or T-bags (as described above). The new bags held approximately 1.3 kg (3 lb.) each. The new bags were twisted and secured shut. Bags were exposed to the 5-day ripening method used in Example 2 above. After ripening, the bags were transported to Spring House, Pa. in a refrigerated truck. Upon arrival, color stage of the bananas was 3.5 to 4.5. Bags were then placed into sealed tents for 12 hours at 13.3° C. […] After that 12-hour period, samples were aired for 1 hour and then kept in place at 13.3° C. (56° F.) for 10 hours and then transferred to an evaluation room, which was maintained at 17.8° C. (64° F.).
All bags remained in the evaluation room for 8 days. Bananas were visually inspected each day, whether they were still in bags or not. The bags were divided into three groups: • A. remained in the bags for 3 days, then removed from the bags for the remaining 5 days; • B. remained in the bags for 4 days, then removed from the bags for the remaining 4 days. • C. remained in the bags for 8 days, then removed on the eighth day for evaluation.

The mark [4] stands for this setting: MAP-10: MAP bag, 1000 ppb 1-MCP.
Setting [5] is: PE-10-C: PE bag, 1000 ppb 1-MCP.

For `CC1=CC1` [1-MCP, 1-methylcyclopropene], the “Comments (additional observations)” value in the test on bananas [1] (MAP-3: MAP bag, 300 ppb 1-MCP) is “Fruit with excellent bright yellow color. Only high”; in the test with bananas [1] (setting [4]) it was “Almost all fruit was at the right color for sale,”; in the test on bananas [1] (PE-3-C: PE bag, 300 ppb 1-MCP) it was “Some fruit was in a good color stage. However most”; in the test with bananas [1] (setting [5]) it was “Some fruit was in a good color stage. However most”. For the same compound, the “Delay in sugar spot development longer than MAP-0” value in the test on bananas [1] (MAP-3: MAP bag, 300 ppb 1-MCP) is reported as “at least three”; with bananas [1] (setting [4]) it was “at least three”. The “Color Stage (mean)” value in the test with bananas [1] (MAP-3: MAP bag, 300 ppb 1-MCP) was 6.3; in the test on bananas [1] (setting [4]), 6.1; in the test on bananas [1] (PE-3-C: PE bag, 300 ppb 1-MCP), 6.8; in the test with bananas [1] (setting [5]), 6.9. Also, the “Sugar Spots (mean %)” value with bananas [1] (MAP-3: MAP bag, 300 ppb 1-MCP) worked out at 3%; with bananas [1] (setting [4]) it was 2%; in the test with bananas [1] (PE-3-C: PE bag, 300 ppb 1-MCP), 35%; with bananas [1] (setting [5]), 73%. The “color and sugar spots versus comparative examples” value in the test with bananas [2] is “same type of improvements over the comparative examples as in Example 2A”. Also, the “development of color and sugar spots” value in the test with bananas [3] (1000 ppb versus 300 ppb 1-MCP in the same type of bag) is “slower development of color and sugar spots”; in the test with bananas [3] (MAP, 300 ppb or 1000 ppb 1-MCP versus T-bags), “much slower development of color and sugar spots”; with bananas [3] (T-bags, 300 ppb or 1000 ppb 1-MCP versus zero) it was “slower development of color and sugar spots”. In the test on bananas [3] (MAP with non-zero 1-MCP), the “extension of shelf life, compared to T bags with no 1-MCP” value is 8 days. In the test with bananas [3] (MAP, 300 ppb or 1000 ppb 1-MCP versus MAP with zero 1-MCP), the “development of color and sugar spots after removal from bags” value was “slower development of color and sugar spots”.
